Source: ChEMBL document CHEMBL1201862, “PubChem BioAssay data set” (2004)
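Compound exposure: 48 hours, 5 concentrations, 96-well plates. GI50 marks 50% less growth.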 Activity calls are given as the source filed them. Cut-off read from the data, not from the text of the source: active = GI50 up to about 1.1 µM and inactive = higher.

Columns and labels:
Assay in all cases: NCI-60 cell line screen, 48 h
NCI-H23 = system: NCI-H23
RXF 393 = system: RXF 393
SF-295 = system: SF-295
SR = system: SR
KM12 = system: KM12
RPMI-8226 = system: RPMI-8226
ACHN = system: ACHN
IGROV-1 = system: IGROV-1
MDA-MB-231 = system: MDA-MB-231
PC-3 = system: PC-3
CAKI-1 = system: CAKI-1
HCC 2998 = system: HCC 2998
MDA-MB-435 = system: MDA-MB-435
OVCAR-3 = system: OVCAR-3
SW-620 = system: SW-620
UO-31 = system: UO-31
Hs-578T = system: Hs-578T
M14 = system: M14
HOP-62 = system: HOP-62
UACC-62 = system: UACC-62

Structure (SMILES) | GI50 (NCI-H23) | GI50 (RXF 393) | GI50 (SF-295) | GI50 (SR) | GI50 (KM12) | GI50 (RPMI-8226) | GI50 (ACHN) | GI50 (IGROV-1) | GI50 (MDA-MB-231) | GI50 (PC-3) | GI50 (CAKI-1) | GI50 (HCC 2998) | GI50 (MDA-MB-435) | GI50 (OVCAR-3) | GI50 (SW-620) | GI50 (UO-31) | GI50 (Hs-578T) | GI50 (M14) | GI50 (HOP-62) | GI50 (UACC-62)
COc1ccc(N2C(=O)C3c4[nH]c5ccc(C)cc5c4C4CCC(c5ccccc5)CC4C3C2=O)cc1 (centres undefined) | 33.7 µM (inactive) | 12.6 µM (inactive) | 20.6 µM (inactive) | 5.41 µM (inactive) | > 100 µM (inactive) | > 82.8 µM (inactive) | 32.6 µM (inactive) | > 51.3 µM (inactive) | 8.41 µM (inactive) | > 100 µM (inactive) | > 33.1 µM (inactive) | > 100 µM (inactive) | > 100 µM (inactive) | > 100 µM (inactive) | > 100 µM (inactive) | > 89.5 µM (inactive) | 6.84 µM (inactive) | 47.1 µM (inactive) | 7.05 µM (inactive) | 22.6 µM (inactive)
Nc1ccc(Cc2ccc(/N=C\c3ccc(OCc4cccc(COc5ccc(/C=N\c6ccc(Cc7ccc(N)cc7)cc6)cc5)n4)cc3)cc2)cc1 | 99.1 µM (inactive) | 23.1 µM (inactive) | 50.1 µM (inactive) | > 100 µM (inactive) | > 100 µM (inactive) | > 100 µM (inactive) | > 100 µM (inactive) | > 100 µM (inactive) | 27 µM (inactive) | > 100 µM (inactive) | > 100 µM (inactive) | > 100 µM (inactive) | > 100 µM (inactive) | 72.3 µM (inactive) | > 100 µM (inactive) | > 100 µM (inactive) | 65.6 µM (inactive) | > 100 µM (inactive) | 37.5 µM (inactive) | > 100 µM (inactive)
Cc1ncc([N+](=O)[O-])n1CCNC(=O)CCCn1ccnc1[N+](=O)[O-] | > 100 µM (inactive) | > 100 µM (inactive) | > 100 µM (inactive) | > 100 µM (inactive) | > 100 µM (inactive) | > 100 µM (inactive) | > 100 µM (inactive) | > 100 µM (inactive) | > 100 µM (inactive) | > 100 µM (inactive) | > 100 µM (inactive) | > 100 µM (inactive) | > 100 µM (inactive) | > 100 µM (inactive) | > 100 µM (inactive) | > 100 µM (inactive) | > 100 µM (inactive) | > 100 µM (inactive) | > 100 µM (inactive) | > 100 µM (inactive)
CCOC(=O)c1ccc(NC2Oc3cc4c(cc3C(c3cc(OC)c(OC)c(OC)c3)C2C)OCO4)cc1 (centres undefined) | 0.695 µM (active) | 0.552 µM (active) | 0.269 µM (active) | 0.296 µM (active) | 0.396 µM (active) | 0.296 µM (active) | 0.769 µM (active) | 0.48 µM (active) | 0.516 µM (active) | 0.376 µM (active) | 0.325 µM (active) | 2.13 µM (inactive) | 0.148 µM (active) | 0.352 µM (active) | 0.339 µM (active) | 0.351 µM (active) | 1.24 µM (inactive) | 0.522 µM (active) | 0.789 µM (active) | 0.46 µM (active)
CCOS(=O)(=O)c1ccc(-c2c3nc(c(-c4ccc(S(=O)(=O)OCC)cc4)c4ccc([nH]4)c(-c4ccc(S(=O)(=O)OCC)cc4)c4nc(c(-c5ccc(S(=O)(=O)OCC)cc5)c5ccc2[nH]5)C=C4)C=C3)cc1 | > 31.6 µM (inactive) | 17.2 µM (inactive) | > 31.6 µM (inactive) | > 31.6 µM (inactive) | > 31.6 µM (inactive) | > 31.6 µM (inactive) | > 31.6 µM (inactive) | > 100 µM (inactive) | > 31.6 µM (inactive) | > 31.6 µM (inactive) | > 31.6 µM (inactive) | > 31.6 µM (inactive) | > 31.6 µM (inactive) | > 10 µM (inactive) | > 31.6 µM (inactive) | 24.8 µM (inactive) | > 31.6 µM (inactive) | > 31.6 µM (inactive) | > 10 µM (inactive) | > 31.6 µM (inactive)
COc1ccc(C(=O)NC2=C(Cl)C(=O)c3ccccc3C2=O)cc1 | 1.6 µM (inactive) | 0.995 µM (active) | 3.85 µM (inactive) | 1.61 µM (inactive) | 1.07 µM (active) | 0.579 µM (active) | 0.472 µM (active) | 2.52 µM (inactive) | 2.36 µM (inactive) | 1.65 µM (inactive) | 2.3 µM (inactive) | 4.49 µM (inactive) | 2.22 µM (inactive) | 1.14 µM (inactive) | 1.1 µM (active) | 1.9 µM (inactive) | 3.08 µM (inactive) | 1.05 µM (active) | 18 µM (inactive) | 0.471 µM (active)
O=C1c2cc(Cl)ccc2-n2cnnc2C2CSCN12 (centres undefined) | – | > 100 µM (inactive) | > 100 µM (inactive) | 75.2 µM (inactive) | > 100 µM (inactive) | > 100 µM (inactive) | > 100 µM (inactive) | > 100 µM (inactive) | > 100 µM (inactive) | > 100 µM (inactive) | 4.54 µM (inactive) | > 100 µM (inactive) | > 100 µM (inactive) | > 100 µM (inactive) | > 100 µM (inactive) | > 100 µM (inactive) | > 100 µM (inactive) | > 100 µM (inactive) | > 100 µM (inactive) | > 100 µM (inactive)
